Measured values from US6737383B1, “Herbicidal oxadiazolidines” (priority 1999, dated 2004).

Experiments:
bedstraw = assay: Test B pre/postemergence bedstraw; assay type: in vivo, Galium aparine; conditions: for Bedstraw plant response rating: scale of 0 to 10 where 0 is no effect and 10 is complete control
Procedure, shortened: (§1)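 Response is a visual 0-to-10 score relative to untreated plants, where 0 means no effect and 10 means complete control, taken twelve to sixteen days after application. Treatments went onto soil at planting and onto foliage of 1- to 4-leaf plants, using a surfactant-containing non-phytotoxic solvent.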

blackgrass = assay: Test B pre/postemergence blackgrass; assay type: in vivo, Alopecurus myosuroides; conditions: for Blackgrass plant response rating: scale of 0 to 10 where 0 is no effect and 10 is complete control
Procedure, shortened: as §1

surinam grass = assay: Test B pre/postemergence surinam grass; assay type: in vivo, Brachiaria decumbens; conditions: for B. signalgrass plant response rating: scale of 0 to 10 where 0 is no effect and 10 is complete control
Procedure, shortened: as §1

cocklebur = assay: Test B pre/postemergence cocklebur; assay type: in vivo, Xanthium strumarium; conditions: for Cocklebur plant response rating: scale of 0 to 10 where 0 is no effect and 10 is complete control
Procedure, shortened: as §1

corn = assay: Test B pre/postemergence corn; assay type: in vivo, Zea mays; conditions: for Corn plant response rating: scale of 0 to 10 where 0 is no effect and 10 is complete control
Procedure, shortened: as §1

crabgrass = assay: Test B pre/postemergence crabgrass; assay type: in vivo, Digitaria sanguinalis; conditions: for Crabgrass plant response rating: scale of 0 to 10 where 0 is no effect and 10 is complete control
Procedure, shortened: as §1

giant foxtail = assay: Test B pre/postemergence giant foxtail; assay type: in vivo, Setaria faberii; conditions: for Giant foxtail plant response rating: scale of 0 to 10 where 0 is no effect and 10 is complete control
Procedure, shortened: as §1

morningglory = assay: Test B pre/postemergence morningglory; assay type: in vivo, Ipomoea hederacea; conditions: Postemergence, scale 0 to 10, 0 is no effect, 10 is complete control
Procedure, shortened: as §1

[1] = Postemergence, Rate 125 g/ha, scale 0 to 10, 0 is no effect, 10 is complete control
[2] = Postemergence, Rate 250 g/ha, scale 0 to 10, 0 is no effect, 10 is complete control
[3] = Preemergence, Rate 62 g/ha, scale 0 to 10 (0 no effect, 10 complete control)
[4] = Rate 500 g/ha, Postemergence, scale 0 to 10, 0 no effect, 10 complete control

Compound: CCOc1nc(C(F)(F)F)c(Cn2c(=O)on(C(=O)N(c3ccccc3)C(C)C)c2=O)s1 [Compound 379]
- Plant response rating, Bedstraw (bedstraw; [1]): 0
- Plant response rating, Bedstraw (bedstraw; [2]): 0
- Plant response rating, Bedstraw (bedstraw; [3]): 0
- Bedstraw plant response rating (0 to 10 scale) (bedstraw; Preemergence, Rate 125 g/ha): 0
- Bedstraw plant response rating (bedstraw; Preemergence, Rate 250 g/ha): 0
- Bedstraw plant response rating (bedstraw; Rate 62 g/ha, Postemergence): 0
- Plant response rating, Bedstraw (bedstraw; [4]): 0
- Plant response rating, Blackgrass (blackgrass; [1]): 0
- Plant response rating, Blackgrass (blackgrass; [2]): 0
- Plant response rating, Blackgrass (blackgrass; [3]): 0
- Blackgrass plant response rating (0 to 10 scale) (blackgrass; Preemergence, Rate 125 g/ha): 0
- Blackgrass plant response rating (blackgrass; Preemergence, Rate 250 g/ha): 0
- Blackgrass plant response rating (blackgrass; Preemergence, Rate 500 g/ha): 0
- Blackgrass plant response rating (blackgrass; Rate 62 g/ha, Postemergence): 0
- Plant response rating, Blackgrass (blackgrass; [4]): 0
- Plant response rating, B. signalgrass (surinam grass; [1]): 0
- Plant response rating, B. signalgrass (surinam grass; [2]): 0
- Plant response rating, B. signalgrass (surinam grass; [3]): 0
- B. signalgrass plant response rating (0 to 10 scale, 0 is no effect, 10 is complete control) (surinam grass; Preemergence, Rate 125 g/ha): 0
- B. signalgrass plant response rating (surinam grass; Preemergence, Rate 250 g/ha): 0
- B. signalgrass plant response rating (surinam grass; Preemergence, Rate 500 g/ha): 0
- B. signalgrass plant response rating (surinam grass; Rate 62 g/ha, Postemergence): 0
- Plant response rating, B. signalgrass (surinam grass; [4]): 0
- Plant response rating, Cocklebur (cocklebur; [1]): 0
- Plant response rating, Cocklebur (cocklebur; [2]): 0
- Plant response rating, Cocklebur (cocklebur; [3]): 0
- Cocklebur plant response rating (0 to 10 scale) (cocklebur; Preemergence, Rate 125 g/ha): 0
- Cocklebur plant response rating (cocklebur; Preemergence, Rate 250 g/ha): 0
- Cocklebur plant response rating (cocklebur; Preemergence, Rate 500 g/ha): 0
- Cocklebur plant response rating (cocklebur; Rate 62 g/ha, Postemergence): 0
- Plant response rating, Cocklebur (cocklebur; [4]): 0
- Plant response rating, Corn (corn; [1]): 0
- Plant response rating, Corn (corn; [2]): 0
- Plant response rating, Corn (corn; [3]): 0
- Corn plant response rating (0 to 10 scale) (corn; Preemergence, Rate 125 g/ha): 0
- Corn plant response rating (corn; Preemergence, Rate 250 g/ha): 0
- Corn plant response rating (corn; Preemergence, Rate 500 g/ha): 0
- Corn plant response rating (corn; Rate 62 g/ha, Postemergence): 0
- Plant response rating, Corn (corn; [4]): 0
- Plant response rating, Crabgrass (crabgrass; [1]): 0
- Plant response rating, Crabgrass (crabgrass; [2]): 0
- Plant response rating, Crabgrass (crabgrass; [3]): 0
- Crabgrass plant response rating (0 to 10 scale) (crabgrass; Preemergence, Rate 125 g/ha): 0
- Crabgrass plant response rating (crabgrass; Preemergence, Rate 250 g/ha): 7
- Crabgrass plant response rating (crabgrass; Preemergence, Rate 500 g/ha): 8
- Crabgrass plant response rating (crabgrass; Rate 62 g/ha, Postemergence): 0
- Plant response rating, Crabgrass (crabgrass; [4]): 0
- Plant response rating, Giant foxtail (giant foxtail; [1]): 0
- Plant response rating, Giant foxtail (giant foxtail; [2]): 2
- Plant response rating, Giant foxtail (giant foxtail; [3]): 0
- Giant foxtail plant response rating (0 to 10 scale) (giant foxtail; Preemergence, Rate 125 g/ha): 1
- Giant foxtail plant response rating (giant foxtail; Preemergence, Rate 250 g/ha): 6
- Giant foxtail plant response rating (giant foxtail; Preemergence, Rate 500 g/ha): 9
- Giant foxtail plant response rating (giant foxtail; Rate 62 g/ha, Postemergence): 0
- Plant response rating, Giant foxtail (giant foxtail; [4]): 7
- Plant response rating, Morningglory (morningglory; Rate 125 g/ha): 7
- Plant response rating, Morningglory (morningglory; Rate 250 g/ha): 8
